# Results reported in PubChem BioAssay (NCI).
#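 96-well plates; 48 h exposure; 5 concentrations. Endpoints by linear interpolation between flanking doses. Not reached: highest tested concentration assigned. GI50 = concentration required for 50% inhibition of growth. The concentration for full growth arrest is given as TGI.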 Active and inactive are the calls of the source. No stated cut-off is given here; in the data, active means GI50 below about 0.43 µM; inactive means the rest.
# Test system: MDA-MB-468 breast
# Experiment: NCI anticancer screen, dose series, 48 h
Structure (SMILES),GI50 [µM],TGI [µM],outcome
COc1cc(-c2nc(-c3nc4ccccc4[nH]3)cc3c2[nH]c2ccccc23)cc(OC)c1OC,3.32,> 100,–
Cc1nc(N2CCC3(CC2)CO[C@@H](C)[C@H]3N)c(CO)nc1Sc1ccnc(N)c1Cl,0.228,4.86,–
Cc1cc(CC(C)CC(C)(C)C)n(O)c(=O)c1 (stereo unspecified) (tested in a mixture with another compound),0.273,1.06,–
CN1C(=O)N[C@H]2[C@@H]3NC(=O)c4ccc(Br)n4[C@@H]3C[C@]21O,0.0253,0.173,–
O=C(Nc1ccc(-n2ccc3c(NC(=O)c4ccccc4)ncnc32)cc1)Nc1cccc(Cl)c1Cl,1.18,3.42,–
CO[C@H](C(=O)[C@@H](O)[C@@H](C)O)[C@@H]1Cc2cc3cc(OC4CC(OC5CC(O)C(O)C(C)O5)C(O)C(C)O4)c(C)c(O)c3c(O)c2C(=O)[C@H]1OC1CC(OC2CC(OC3CC(C)(O)C(O)C(C)O3)C(O)C(C)O2)C(O)C(C)O1 (stereo partly specified),–,–,inactive
CCOC(=O)CC1C(COC(=O)NC)OC(n2cnc3c(NC(=O)Nc4ccccc4)ncnc32)C1O[Si](C)(C)C(C)(C)C (stereo unspecified),19.7,94.1,–
Nc1nc(N)c2cc(NCc3ccc(Cl)c(Cl)c3)ccc2n1,1.06,2.23,–
COc1ccc(C(=O)c2cc3c(N)c(C(=O)Nc4ccc(C)cc4)sc3nc2C)cc1,1.87,7.08,–
COc1ccc2c(c1)CC[C@H](O)/C2=C/c1cc(OC)c(OC)c(OC)c1,0.2,15.8,–
COc1ccc2[nH]cc(-c3nc(N)nnc3-c3cn(C)c4ccc(Br)cc34)c2c1,0.698,16,–
O=C(N/N=C/c1ccc([N+](=O)[O-])s1)c1[nH]c2ccc(Br)cc2c1-c1ccccc1,0.731,22.2,–
COc1cccc(NC(=O)c2sc3nc4c(cc3c2N)C(=O)CCC4)c1,0.0467,> 100,–
CC(C)(C)CC(C)(C)NCc1cc(C(C)(C)C)cc(CNC(C)(C)CC(C)(C)C)c1O,1.26,2.85,–
C=C1CCC2C(C)(COC(=O)CC)C(OC(=O)CC)CCC2(C)C1C/C=C1/C(=O)OCC1OC(=O)CC (stereo unspecified),1.74,3.4,–
CNC(=O)Cc1nc(-c2cccc(NS(=O)(=O)c3c(F)cccc3F)c2F)c(-c2ccnc(Nc3ccccc3)n2)s1,> 23.4,> 50,–
CCN(CC)CCCC(C)N=C(C1=C(C(=NC(C)CCCN(CC)CC)c2cccc(OC)c2)C(=O)NC1=O)c1cccc(OC)c1 (stereo unspecified),0.869,2.07,–
CC(C)(C)[Si](C)(C)OC1[C@@H](O[Si](C)(C)C(C)(C)C)[C@@H](CNC(=O)NC(=O)CCl)O[C@H]1n1cnc2c(NC(=O)Nc3ccccc3)ncnc21 (stereo partly specified),0.839,1.91,–
COc1cc(CNc2ccccc2C(=O)N2CCN(C(=O)c3cc(-c4cc(OC)c(OC)c(OC)c4)n4nc(-c5ccccc5)cc4n3)CC2)cc(OC)c1OC,2.1,8.45,–
Cc1ccc(C)c(C2NC(=O)c3ccccc3N2)c1 (stereo unspecified),4.38,> 100,–
O=C1/C(=C\c2ccccn2)c2ccccc2N1c1c(Cl)cccc1Cl,1.26,3.1,–
